Source: patent publication US4876269A (priority 1987, dated 1989)
Like-named read-outs stand apart in the source and are kept apart here.

Assays:
[1] = design: species or system male white mice (CF1); settings: mouse, in vivo; for ED50 (effective analgesic dose in 50% of the mice), p.o.: po; for ED50 (effective analgesic dose in 50% of the mice), s.c.: sc
[2] = test system: kappa receptor; settings: rat, in vivo; cited from earlier work
[3] = test system: kappa receptor; settings: rat, in vivo

| Compound | ED50 (effective analgesic dose in 50% of the mice), p.o. [1] [mg/kg] | ED50 (effective analgesic dose in 50% of the mice), s.c. [1] [mg/kg] | other results |
| --- | --- | --- | --- |
| CN(C(=O)Cc1ccc(Cl)c(Cl)c1)[C@@H]1c2c(ccc3ccccc23)CC[C@H]1N1CCCC1 (relative stereo) [Example 69] | 16. | 3.0 |  |
| CN(C(=O)Cc1ccc(Cl)c(Cl)c1)[C@@H]1c2ccccc2OC[C@H]1N1CCCC1 (relative stereo) [Example 7, trans-3,4-Dichloro-N-methyl-N-[3,4-dihydro-3-(pyrrolidin-1-yl)-2H-benzopyran-4-yl]benzeneacetamide] | 36 | 1.7 |  |
| CN(C(=O)Cc1ccccc1)[C@@H]1c2ccccc2CC[C@H]1N1CCCC1 (relative stereo) [Example 11] | > 81. | 30. |  |
| CN(C(=O)Cc1ccc(Cl)c(Cl)c1)[C@@H]1c2cccc(OC(=O)c3ccccc3)c2CC[C@H]1N1CCCC1.Cl (relative stereo) [Example 16, trans-3,4-dichloro-N-methyl-N-[2-(pyrrolidin-1-yl)-5-benzoyloxy-1,2,3,4-tetrahydronaphth-1-yl]benzeneacetamide hydrochloride] | 10. | 0.71 |  |
| CN(C(=O)Cc1ccc(C(F)(F)F)cc1)[C@@H]1c2ccccc2CC[C@H]1N1CCCC1 (relative stereo) [Example 12] | 54. | 19. |  |
| COCc1c(O)ccc2c1CC[C@@H](N1CCCC1)[C@@H]2N(C)C(=O)Cc1ccc(Cl)c(Cl)c1 (relative stereo) [Example 25] | 54. | 0.19 |  |
| CN1CC[C@]23c4c5ccc(O)c4O[C@H]2[C@@H](O)C=C[C@H]3[C@H]1C5 [Morphine] | 3.8 | 1.0 | increase in urine flow, in words [2]: largely devoid of this property; % increase over control (urine output) [3]: 48%; increase in urine flow / diuresis, in words [3]: minimal or no diuresis; mean cumulative urine output at 5 hours [3]: 1.38 mL; % increase over control (urine output) ([3]; sc): 159%; mean cumulative urine output at 5 hours ([3]; sc): 2.41 mL; toxicity / deaths ([3]; sc): Toxic (2/8 dead) |
| CN(C(=O)Cc1ccccc1)[C@@H]1c2ccccc2OC[C@H]1N1CCCC1.Cl (relative stereo) [Example 19, trans-N-methyl-N-[3,4-dihydro-3-(pyrrolidin-1-yl)-2H-benzopyran-4-yl]benzeneacetamide hydrochloride] | 36. | 1.7 |  |
| CN(C)C(=S)Oc1cccc2c1CC[C@@H](N1CCCC1)[C@@H]2N(C)C(=O)Cc1ccc(Cl)c(Cl)c1.Cl (relative stereo) [Example 68, trans-3,4-dichloro-N-methyl-N-[2-(pyrrolidin-1-yl)-5-(N,N-dimethylthiocarbamoyloxy)-1,2,3,4-tetrahydronaphth-1-yl]benzeneacetamide hydrochloride] | 18. | 1.7 |  |
| COc1cccc2c1OC[C@@H](N1CCCC1)[C@@H]2N(C)C(=O)Cc1ccc(Cl)c(Cl)c1.Cl (relative stereo) [Example 20, trans-3,4-dichloro-N-methyl-N-[3,4-dihydro-8-methoxy-3-(pyrrolidin-1-yl)-2H-benzopyran-4yl]benzeneacetamide hydrochloride] | 30. | 1.2 |  |
| COCOc1cccc2c1CC[C@@H](N1CCCC1)[C@@H]2N(C)C(=O)Cc1ccc(Cl)c(Cl)c1 (relative stereo) [Example 48] | 13. | 4.5 |  |
| COc1cccc2c1CC[C@@H](N1CC=CC1)[C@@H]2N(C)C(=O)Cc1ccc(Cl)c(Cl)c1.Cl (relative stereo) [Example 50, trans-3,4-dichloro-N-methyl-N-[2-(2,5-dihydro-1H-pyrrol-1-yl)-5-methoxy-1,2,3,4-tetrahydronaphth-1-yl]benzeneacetamide hydrochloride] | 3.4 | 0.24 |  |
| CN(C(=O)Cc1ccc(Br)cc1)[C@@H]1c2ccccc2CC[C@H]1N1CCCC1 (relative stereo) [Example 10] | 54. | 8.1 |  |
